These results are taken from patent publication US7932272B2, “Antifungal agent containing heterocyclic compound” (Eisai R&D Management Co., Ltd., priority 2003, dated 2011).

Structures are written as SMILES. ≈ marks a conversion by molar mass, not a printed value.

In test [1] the test system is C. albicans E81022 strain. The test is described as follows: Anti-Candida activity (MIC measurement). As to conditions: E81022STRAIN, MIC by visual inspection, C. albicans E81022, 48 hours at 30 to 35° C. In kind it is cell-based. How it is done: (§1) For the C. albicans E81022 strain, a fungal suspension from a standing culture for 48 hours at 30° C. in a Sabouraud dextrose liquid culture medium (SDB) was diluted 10,000-fold with a 1.3-fold concentrated SDB to adjust to a fungal suspension of 1 to 2×10^4 cells/ml. For the A. fumigatus Tsukuba strain, −80° C. stored strain was diluted 1,000-fold with a 1.3-fold concentrated SDB to adjust to a fungal suspension of 2 to 3×10^3 cells/ml.
(§2) Using a U-bottomed 96 well plate, 8 samples/plate (A to H) of sample dilution solutions were prepared. On the 3rd row of each plate was dispensed 240 μl of sterilized and distilled water, and on the 2nd and 4th to 12th rows were dispensed 125 μl of 4% dimethylsulfoxide solution. Weighed sample was dissolved in dimethylsulfoxide to prepare a 2.5 to 20 mg/ml solution, 10 μl of this solution was then added to the 3rd row of the prepared plate, and 10 steps of two-fold step dilutions (125 μl of solution+125 μl of 4% dimethylsulfoxide) were performed on the plate.
(§3) The fungal suspension preprared in (1) was used in the amount of 75 μl/well to inoculate a V-bottomed or flat-bottomed 96 well plate containing 25 μl/well of test compound dilution solution prepared in (2), and a standing culture was carried out aerobically for 48 hours at 30 to 35° C.

Test [2] concerns A. fumigatus Tsukuba strain. As to the kind of experiment: Anti-Aspergillus activity (MIC measurement). In kind it is cell-based. As to conditions: MIC by visual inspection, 48 hours at 30 to 35° C. How it is done:
as §1, §2, §3

For test [3], the system named is C. albicans E81022 strain. As to the kind of experiment: Experimental systemic candida infection model in mice. As to conditions: C. albicans i.v. infection, 2.5 mg/kg peroral 3 times every 4 hours, observed until 14 days after infection. The test is classed as in vivo, female ICR mice. How it is done:
A standing culture of C. albicans E81022 strain was carried out for 48 hours at 30° C. in Sabouraud dextrose agar medium (SDA), the recovered fungal cells were suspended in sterilized physiological saline. By counting the fungal number on a cytometry plate, the suspension was diluted to 2×10^7 cells/ml with sterilized physiological saline to serve as fungal inoculum.
The fungal inoculum was used in the amounts of 0.2 ml to inoculate 4.5 to 5.5 week-old female ICR mice in the tail vein (4×10^6 cells/mouse).
From 0.5 to 1 hour after fungal inoculation, 0.2 ml of agent solution (dissolved or suspended in sterilized physiological saline containing 6.5% dimethylsulfoxide and 3.5% Tween 80) was administered into the stomach using a peroral probe, 3 times every 4 hours. The agent concentration was 2.5 mg/kg, and the number of animals in one group was 5 animals.
(§4) The protective effect was determined by observing life/death until 14 days after infection and calculating the mean survival days.

In test [4] the test system is A. fumigatus Tsukuba strain. The test is described as follows: Experimental respiratory aspergillus infection model in mice. In kind it is in vivo, female DBA/2N mice. The settings on record: 5-fluorouracil-treated mice, A. fumigatus nasal infection, 20 or 40 mg/kg peroral 3 times per day for 3 days, observed until 14 days after infection. As to the method:
In order to increase susceptibility of the mice to infection, 200 mg/kg of 5-fluorouracil was administered subcutaneously 6 days prior to infection.
A. fumigatus Tsukuba strain was used.
A spore suspension of the infection strain was used to coat a potato dextrose agar medium (PDA), a standing culture was carried out for 4 to 7 days at 35° C., spore was then suspended in a sterilized physiological saline containing 0.05% Tween 80. By counting the pore count on a cytometry plate, the suspension was diluted to 6×10^5 cells/ml with sterilized physiological saline containing 0.05% Tween 80 to serve as fungal inoculum.
Under ketalar anesthesia, 50 μl of fungal inoculum was used to inoculate 8 to 9 week-old female DBA/2N mice in the nose (3×10^4 cells/mouse).
From 1 hour after fungal inoculation, 0.2 ml of agent solution (dissolved or suspended in sterilized physiological saline containing 6.5% DMSO and 3.5% Tween 80), was administered into the stomach using a peroral probe 3 times per day for 3 days. The agent dosage was from 20 or 40 mg/kg, and the number of animals in one group was 5 animals.
as §4

The MIC is the smallest concentration in the dilution series that meets the test's criterion for growth inhibition. On to `Nc1ccc(C(=O)NCc2ccc(Oc3ccccc3)s2)c(N)n1` [Example A-54, 2,6-diamino-N-(5-phenoxy-thiophene-2-ylmethyl)-nicotinamide], for which the MIC was 0.78 µg/mL (≈ 2.29 µM) in test [1] and 1.56 µg/mL (≈ 4.58 µM) in test [2]. Also, the “Mean Survival Days” value in test [3] is 10.0 days.

Regarding `O=C(NCc1ccn(Cc2cccc(F)c2)c1)c1ccc2ncccc2n1` [Example D-4, [1,5]Naphthylidine-2-carboxylic acid (1-(3-fluoro-benzyl)-1H-pyrrol-3-ylmethyl)-amide], the “Mean Survival Days” value in test [4] stood at 10.8 days.

For `O=C(NCc1ccc(Oc2cccc(F)c2)s1)c1ccc2ncccc2c1` [Example E-65, Quinoline-6-carboxylic acid (5-(3-fluorophenoxy)thiophen-2-ylmethyl) amide], the MIC in test [1] is 0.1 µg/mL (≈ 0.264 µM); in test [2] it was 1.56 µg/mL (≈ 4.12 µM). For the same compound, the “Mean Survival Days” value in test [3] was 11.6 days.

Regarding `COCc1ccc(C(=O)NCc2ccc(OCc3ccccn3)cc2)c(N)n1` [Example A-31, 2-Amino-6-methoxymethyl-N-(4-(pyridin-2-ylmethoxy)-benzyl)-nicotinamide], the “Mean Survival Days” value in test [4] came out at 11.2 days.

As for `Nc1ccc(C(=O)NCc2ccc(OCc3ccccc3)cc2)c(N)n1` [Example A-10, 2,6-Diamino-N-(4-benzyloxy-benzyl)-nicotinamide], the MIC stood at 0.78 µg/mL (≈ 2.24 µM) in test [1] and 1.56 µg/mL (≈ 4.48 µM) in test [2]. Moreover, in test [3], the “Mean Survival Days” value is 12.5 days.

In the case of `Nc1ncccc1C(=O)NCc1ccc(Oc2cccc(F)c2)s1` [Example A-68, 2-Amino-N-(5-(3-fluoro-phenoxy)-thiophen-2-ylmethyl)-nicotinamide], the figures for the MIC in test [1] and in test [2] were 0.05 µg/mL (≈ 0.146 µM) and 0.78 µg/mL (≈ 2.27 µM), respectively. In addition, the “Mean Survival Days” value in test [3] was determined as 10.6 days.

Regarding `Nc1ccc(C(=O)NCc2ccc(OCc3ccccc3F)cc2)c(N)n1` [Example A-11, 2,6-Diamino-N-(4-(2-fluoro-benzyloxy)-benzyl)-nicotinamide], the “Mean Survival Days” value in test [4] was found to be 10.4 days.

`Nc1ncccc1C(=O)NCc1ccc(Cc2ccccc2)s1` [Example A-70, 2-Amino-N-(5-benzyl-thiophen-2-ylmethyl)-nicotinamide]: the figures for the MIC in test [1] and in test [2] were 0.05 µg/mL (≈ 0.155 µM) and 0.78 µg/mL (≈ 2.41 µM), respectively. Moreover, the “Mean Survival Days” value in test [3] came to 12.6 days.

On to `CC(=O)c1ccc(C(=O)NCc2ccc(Oc3ccccc3)s2)c(N)n1` [Example A-98, 6-Acetyl-2-amino-N-(5-phenoxy-thiophen-2-ylmethyl)-nicotinamide], for which the MIC in test [1] came out at 0.39 µg/mL (≈ 1.06 µM); in test [2], 1.56 µg/mL (≈ 4.25 µM).

Turning to `O=C(NCc1cccc(Oc2ccccc2)c1)c1ccc2nsnc2c1` [Example M-1, Benzo[1,2 5]thiadiazole-5-carboxylic acid 3-phenoxybenzylamide], the minimum inhibitory concentration (MIC) in test [1] and in test [2] was 1.56 µg/mL (≈ 4.32 µM) throughout.

For the compound `Nc1ccc(C(=O)NCc2ccc(Oc3cccc(F)c3)s2)cn1` [Example A-137, 6-Amino-N-(5-(3-fluorophenoxy)thiophen-2-ylmethyl)nicotinamide], in test [1], 1.56 µg/mL (≈ 4.54 µM) was the least that counted as inhibitory (MIC). Further, in test [3], the “Mean Survival Days” value is 12.8 days.

With `Nc1ccc(C(=O)NCc2ccc(Oc3ccc(F)cc3)s2)c(N)n1` [Example A-53, 2,6-Diamino-N-(5-(4-fluoro-phenoxy)-thiophen-2-ylmethyl)-nicotinamide], the values for the MIC in test [1] and in test [2] were 0.39 µg/mL (≈ 1.09 µM) and 0.78 µg/mL (≈ 2.18 µM), respectively. Moreover, the “Mean Survival Days” value in test [3] was 13.4 days.

`Nc1ccc(C(=O)NCc2ccc(OCc3ccccc3)s2)c(N)n1` [Example A-56, 2,6-Diamino-N-(5-benzyloxy-thiophen-2-ylmethyl)-nicotinamide]: the “Mean Survival Days” value in test [4] worked out at 10.8 days.

Turning to `Cc1nc2ccc(C(=O)NCc3cccc(Oc4ccccc4)c3)cc2o1` [Example K-1, 2-Methyl-benzoxazole-6-carboxylic acid 3-phenoxybenzylamide], the minimum inhibitory concentration (MIC) is 0.78 µg/mL (≈ 2.18 µM) in test [1] and 1.56 µg/mL (≈ 4.35 µM) in test [2].

For the compound `O=C(O)CCNc1ncccc1C(=O)NCc1ccc(Oc2ccccc2)s1` [Example A-131], the MIC in test [1] stood at 1.56 µg/mL (≈ 3.92 µM); in test [2] it was 6.25 µg/mL (≈ 15.7 µM).

Turning to `N#C/N=C(\NCc1ccc(OCc2ccccc2)cc1)c1ccc2ncccc2c1` [Example E-45, N-(4-Benzyloxy-benzyl)-N′-cyano-quinoline-6-carboxamidine], the MIC in test [1] and in test [2] was 3.13 µg/mL (≈ 7.98 µM) in each case.

Consider `Nc1ccc(C(=O)NCc2ccc(Oc3ccc(F)cc3)s2)cn1` [Example A-139, 6-Amino-N-(5-(4fluoro-phenoxy)-thiophen-2-ylmethyl)-nicotinamide], for which the MIC in test [1] and in test [2] was 1.56 µg/mL (≈ 4.54 µM) throughout.

For `O=C(NCc1ccc(Oc2ccc(F)cc2)s1)c1ccc2ncccc2n1` [Example D-7, [1,5]Naphthylidine-2-carboxylic acid (5-(4-fluoro-phenoxy)-thiophen-2-ylmethyl)-amide], the “Mean Survival Days” value in test [4] amounted to 10.6 days.

On to `O=C(NCc1ccc(Oc2ccc(F)cc2)s1)c1ccc2ncccc2c1` [Example E-67, Quinoline-6-carboxylic acid (5-(4-fluorophenoxy)thiophen-2-yl)methyl amide], for which the MIC was determined as 0.39 µg/mL (≈ 1.03 µM) in test [1] and 0.78 µg/mL (≈ 2.06 µM) in test [2].

Regarding `O=C(NCc1cccc(Oc2ccccc2)c1)c1ccc2ncccc2c1` [Example E-11, Quinoline-6-carboxylic acid 3-phenoxybenzylamide], the MIC was 0.39 µg/mL (≈ 1.1 µM) in test [1] and 1.56 µg/mL (≈ 4.4 µM) in test [2].

On to `O=C(NCc1ccc(Oc2ccccc2)s1)c1cnc2[nH]ccc2c1` [Example R-1, 1H-Pyrrolo[2,3-b]pyridine-5-carboxylic acid (5-phenoxy-thiophen-2-ylmethyl)-amide], for which the MIC turned out to be 0.39 µg/mL (≈ 1.12 µM) in test [1] and 3.13 µg/mL (≈ 8.96 µM) in test [2]. For the same compound, the “Mean Survival Days” value in test [3] is 10.4 days.

Regarding `N#Cc1cccc(Oc2ccc(CNC(=O)c3ccc4ncccc4c3)s2)c1` [Example E-64, Quinoline-6-carboxylic acid (5-(3-cyano-phenoxy)-thiophen-2-ylmethyl)-amide], the MIC turned out to be 0.2 µg/mL (≈ 0.519 µM) in test [1] and 6.25 µg/mL (≈ 16.2 µM) in test [2].

Regarding `O=C(NCc1cc(Oc2cccc(F)c2)cs1)c1ccc2ncccc2c1` [Example E-69, Quinoline-6-carboxylic acid (4-(3-fluoro-phenoxy)-thiophen-2-ylmethyl)-amide], the values for the minimal inhibitory concentration (MIC) in test [1] and in test [2] were 0.1 µg/mL (≈ 0.264 µM) and 1.56 µg/mL (≈ 4.12 µM), respectively.

As to `COCc1ccc(C(=O)NCc2ccc(OCc3ccc(F)cc3)cc2)c(N)n1` [Example A-32, 2-Amino-N-(4-(4-fluoro-benzyloxy)-benzyl)-6-methoxymethyl-nicotinamide], the “Mean Survival Days” value in test [4] amounted to 11.8 days.

Regarding `O=C(NCc1cccc(C=C2CCCC2)c1)c1ccc2ncccc2c1` [Example E-51, 6-Quinolinecarboxylic acid 3-cyclopentylydenemethylbenzylamide], the MIC in test [1] turned out to be 0.78 µg/mL (≈ 2.28 µM); in test [2], 3.13 µg/mL (≈ 9.14 µM).

For the compound `Nc1nc(NCc2ccccc2)ccc1C(=O)NCc1ccc(Oc2ccccc2)s1` [Example A-126, 2-Amino-6-benzylamino-N-(5-phenoxy-thiophen-2-ylmethyl)-nicotinamide], the MIC in test [1] is 0.78 µg/mL (≈ 1.81 µM); in test [2], 6.25 µg/mL (≈ 14.5 µM).

`O=C(NCc1ccc(OCc2ccccc2)cc1F)c1ccc2ncccc2c1` [Example E-53, Quinoline-6-carboxylic acid 4-benzyloxy-2-fluoro-benzalamide]: the MIC in test [1] was found to be 1.56 µg/mL (≈ 4.04 µM); in test [2], 3.13 µg/mL (≈ 8.1 µM).

For the compound `Nc1nc(NCc2ccc(OCc3ccccc3)cc2)c2cccnc2n1` [Example Y-1, N*4*-(4-Benzyloxy-benzyl)-pyrido[2,3-d]pyrimidine-2,4-diamine], the MIC was determined as 0.78 µg/mL (≈ 2.18 µM) in test [1] and 6.25 µg/mL (≈ 17.5 µM) in test [2].
